The source of these data is PMC11083775, “Synthesis, In Silico and Kinetics Evaluation of N-(β-D-glucopyranosyl)-2-arylimidazole-4(5)-carboxamides and N-(β-D-glucopyranosyl)-4(5)-arylimidazole-2-carboxamides as Glycogen Phosphorylase Inhibitors” (International Journal of Molecular Sciences, 2024).

Molecules are shown by their SMILES.

For one assay, the target named is T1, rabbit muscle glycogen phosphorylase b (rmGPb) (Oryctolagus cuniculus, UniProt P00489).
T1 sequence (P00489 1-843): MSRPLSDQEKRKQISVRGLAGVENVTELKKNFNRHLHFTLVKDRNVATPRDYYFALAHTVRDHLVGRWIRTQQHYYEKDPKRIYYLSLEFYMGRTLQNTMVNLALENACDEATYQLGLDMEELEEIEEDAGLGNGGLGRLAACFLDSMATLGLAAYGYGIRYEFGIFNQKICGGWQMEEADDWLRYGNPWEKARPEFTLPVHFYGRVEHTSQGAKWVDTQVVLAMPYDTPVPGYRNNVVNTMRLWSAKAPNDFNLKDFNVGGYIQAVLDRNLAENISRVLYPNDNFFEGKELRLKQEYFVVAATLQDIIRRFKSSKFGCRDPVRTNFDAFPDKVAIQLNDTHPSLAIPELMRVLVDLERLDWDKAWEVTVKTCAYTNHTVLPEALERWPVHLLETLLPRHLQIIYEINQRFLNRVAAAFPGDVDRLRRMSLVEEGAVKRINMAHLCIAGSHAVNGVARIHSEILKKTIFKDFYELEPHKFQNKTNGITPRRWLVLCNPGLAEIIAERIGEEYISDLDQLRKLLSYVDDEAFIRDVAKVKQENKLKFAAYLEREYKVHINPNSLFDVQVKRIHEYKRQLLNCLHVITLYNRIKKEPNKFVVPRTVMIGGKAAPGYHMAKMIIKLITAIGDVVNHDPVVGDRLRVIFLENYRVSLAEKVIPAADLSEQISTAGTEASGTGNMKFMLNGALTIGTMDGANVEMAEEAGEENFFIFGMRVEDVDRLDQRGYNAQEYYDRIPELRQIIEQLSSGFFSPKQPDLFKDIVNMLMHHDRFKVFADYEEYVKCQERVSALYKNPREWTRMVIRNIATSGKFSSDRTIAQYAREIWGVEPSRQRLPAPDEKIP
Experiment: not given
The settings on record: cited from earlier work.
As to `O=C(N[C@@H]1O[C@H](CO)[C@@H](O)[C@H](O)[C@H]1O)c1nc(-c2ccc3ccccc3c2)no1` [VIIIc], the inhibitory constant (Ki) (as a rule, a dissociation constant, usually derived from enzyme kinetics or from competition with a known ligand) is on record as “no inh”. For the molecule `O=C(N[C@@H]1O[C@H](CO)[C@@H](O)[C@H](O)[C@H]1O)c1noc(-c2ccc3ccccc3c2)n1` [VIIc], the inhibition constant Ki entry is on record as “no inh”.

Another assay addresses T1, rabbit muscle glycogen phosphorylase b (rmGPb). In words: Kinetics of rabbit muscle GPb inhibition, assayed in the direction of glycogen synthesis. Format: biochemical. The settings on record: 10 μg/mL enzyme, glucose-1-phosphate 4–40 mM, 1% glycogen, 1 mM AMP, at least three independent experiments, ± SD, read-out: Inhibition constant (Ki). The method, then:
Inhibitory constants (Ki) were determined for rabbit muscle glycogen phosphorylase. Enzyme activity was assayed in the direction of glycogen synthesis, as previously published. The experiments were performed using the rabbit muscle phosphorylase b (dephosphorylated, GPb) isoform. Kinetic data for the inhibition of GPb by the compounds were obtained in the presence of 10 μg/mL of the enzyme, varying the concentrations of α-D-glucose-1-phosphate (4–40 mM) and using constant concentrations (1%) of glycogen and AMP (1 mM). The enzymatic activities were presented in the form of a double reciprocal plot (Lineweaver–Burk). The plots were analysed using a non-linear data analysis program. The inhibitor constants (Ki) were determined using secondary plots, replotting the slopes from the Lineweaver–Burk plot against the inhibitor concentrations. The means of the standard errors for all calculated kinetic parameters averaged to less than 10% [40].
For `O=C(N[C@@H]1O[C@H](CO)[C@@H](O)[C@H](O)[C@H]1O)c1cnc(-c2ccccc2)[nH]1` [Compound 1a, N-(β-D-Glucopyranosyl)-2-phenyl-1H-imidazole-4(5)-carboxamide], the Ki is 10.4 ± 6.2 µM. Still for that read-out and setting: with `O=C(N[C@@H]1O[C@H](CO)[C@@H](O)[C@H](O)[C@H]1O)c1cnc(-c2cccc3ccccc23)[nH]1` [Compound 1b, N-(β-D-Glucopyranosyl)-2-(1-naphthyl)-1H-imidazole-4(5)-carboxamide] the figure was 16.2 ± 8.1 µM; with `O=C(N[C@@H]1O[C@H](CO)[C@@H](O)[C@H](O)[C@H]1O)c1cnc(-c2ccc3ccccc3c2)[nH]1` [Compound 1c, N-(β-D-Glucopyranosyl)-2-(2-naphthyl)-1H-imidazole-4(5)-carboxamide], 12.8 ± 3 µM; with `O=C(N[C@@H]1O[C@H](CO)[C@@H](O)[C@H](O)[C@H]1O)c1ncc(-c2ccccc2)[nH]1` [Compound 2a, N-(β-D-Glucopyranosyl)-4(5)-phenyl-1H-imidazole-2-carboxamide], 67.4 ± 9.7 µM. On the same count and under the same terms, the figure for `O=C(N[C@@H]1O[C@H](CO)[C@@H](O)[C@H](O)[C@H]1O)c1ncc(-c2cccc3ccccc23)[nH]1` [Compound 2b, N-(β-D-Glucopyranosyl)-4(5)-(1-naphthyl)-1H-imidazole-2-carboxamide] is 4.1 ± 0.8 µM. On the same count and under the same terms, with `O=C(N[C@@H]1O[C@H](CO)[C@@H](O)[C@H](O)[C@H]1O)c1ncc(-c2ccc3ccccc3c2)[nH]1` [Compound 2c, N-(β-D-Glucopyranosyl)-4(5)-(2-naphthyl)-1H-imidazole-2-carboxamide] the figure was 3.3 ± 0.1 µM.
